Reference: patent US20050042714A1, “Glycoconjugates of sialic acid derivates, methods for their production and use thereof” (priority 2001, published 2005)

Legend:
Assay type in all cases: cell-based, human
[1] = system: HL60-I cells; test: uptake of peracetylated/esterified NeuAc: VVA and TML lectin staining by flow cytometry; conditions: for effect on cell surface sialylation (VVA and TML binding): 0.03 to 1 mM (NeuAc 1 or 5 mM), 0.5% DMSO
Method: Peracetylation of NeuAc only facilitates uptake if the carboxyl group is additionally esterified. Hyposialylated HL60-I cells were cultivated in the presence of indicated synthetic sialic acid analogue (stock solution 200 mM in DMSO) ranging from 0.03 to 1 mM or 0, 1 or 5 mM NeuA for 72 h with DMSO concentrations adjusted to 0.5%. Cells were stained with either directly fluorochrome-coupled lectin VVA, or biotin-coupled lectin (TML) and streptavidin-FITC for analysis by flow cytometry. Values given are relative factors of change of the mean fluorescence intensity of pretreated cells relative to untreated cells. The bars represent arithmetic means±SD (n=3). Molecular structures are given below the diagram.
Sugars are very hydrophilic and it has been shown that increasing the hydrophobicity by peracetylation of hydroxyl groups enables or facilitates uptake of disaccharides (Collins, B. E., Fralich, T. J., Itonori, S., Ichikawa, Y. and Schnaar, R. L. (2000) Glycobiology, 10, 11-20; Sarkar, A. K., Fritz, T. A., Taylor, W. H. and Esko, J. D. (1995) Proc Natl Acad Sci USA, 92, 3323-7; Sarkar, A. K., Rostand, K. S., Jain, R. K., Matta, K. L. and Esko, J. D. (1997) J Biol Chem, 272, 25608-16). For ManNAc derivatives it has been shown that peracetylation reduces required medium concentrations (Collins et al., 2000). The acetyl groups are cleaved-off intracellularly by cellular esterases (Collins et al., 2000; Sarkar et al., 1995; Sarkar et al., 1997) and the derivatives are then processed as known for the non-acetylated sugars. In order to address the question whether peracetylation also facilitates uptake of N-acetylneuraminic acid, HL60-I cells were cultivated in the presence of peracetylated NeuAc at concentrations ranging from 0.03 mM to 1 mM for 3 days. Changes in cell surface sialylation were measured by flow cytometry using Vicia Villosa agglutinin (VVA) and Tritrichomonas mobilensis lectin (TML). […] This represents a reduction in concentration by more than 16-fold and is in a similar range as reported for peracetylated ManNAc and ManNAc (Collins et al., 2000).
(§1) Lyophilized FITC-conjugated lectins Vicia villosa (VVA) was obtained from Sigma, dissolved in H2O (1 mg/ml), aliquoted and stored at −20° C. according to the manufacturer's instructions. FITC-conjugated Limax flavus agglutinin (LFA) was from EY Laboratories (San Manteo, Calif., USA) and biotin-coupled Tritrichomonas mobilensis agglutinin (TLM) from Calbiochem. Lectin staining procedure and fluorescence-activated cell scanning on a Becton Dickinson FACScan cytometer using Cellquest II software were carried out as described (Keppler, O. T., Molden-hauer, G., Oppenländer, M., Schwartz-Albiez, R., Berger, E. G., Funderud, S., and Pawlita, M. (1992) Eur J Immunol 22(11), 2777-81). Briefly, cells (3×10^5) were washed twice in cold PBS and then incubated in 100 μl PBS/0.05% NaN3, containing either fluorochrome-conjugated lectins VVA (50 μg/ml), LFA (20 μg/ml), or biotinylated TLM (20 μg/ml) for 45 min on ice in the dark. For biotinylated TLM a secondary incubation step with steptavidin-FITC (20 μg/ml) (Sigma) for 30 min on ice in the dark is required. After washing with PBS, cells were resuspended in 300 μl PBS and analyzed by flow cytometry.

[2] = system: HL60-I cells; test: metabolic complementation assay: lectin staining (VVA, LFA, TLM) of analogue-treated cells by flow cytometry; conditions: 5 mM, 24 h; for effect on VVA binding: decrease = masking of GalNAc by sialic acid
Method: Medium supplementation with some synthetic sialic acid analogues restores cell surface sialylation in hyposialylated HL60-I cells. Cells were cultivated in the presence of indicated synthetic sialic acid analogue (5 mM) for 24 h and stained with either directly fluorochrome-coupled lectins (VVA, LFA) or biotin-coupled lectin (TLM) and streptavidin-FITC and analyzed by flow cytometry. Values are given as “relative factor of change” (RFC) of the “mean fluorescence intensity” (MFI) of sialic acid-treated cells relative to untreated cells. The bars represent arithmetic means±SD (n^34) of one (x) or ≧two experiments.
To test whether cells can incorporate synthetic sialic acid analogues from the culture medium, a metabolic complementation assay was performed on endogenously hyposialylated, UDP-GlcNAc-2-epimerase-deficient HL60-I cells.
Cells were cultivated for 24 h in the presence of one of 16 different synthetic sialic acid analogues, carrying distinct C5 or C9 modifications (FIG. 1), and subsequently, changes in cell surface sialylation were assessed by flow cytometry using three fluorochrome-conjugated sialic acid-sensitive lectins. Vicia villosa agglutinin (VVA) detects GalNAc residues, and its binding sites can be masked by the addition of terminal sialic acid residues.
In sugar supplementation assays, cells seeded at 5×10^5 cells/ml in culture medium buffered with 40 mM HEPES (pH 7.2) were cultivated for 24 h in the presence or absence of 5 mM sialic acids (stocks of 100 mM dissolved in H2O, stored at 4° C.).
as §1

[3] = system: BJA-B K20 cells; test: HPLC of membrane-associated sialic acids from analogue-treated cells; conditions: serum-free, 5 mM, 48 h
Method: Sialic acid analogues are incorporated in cell surface glycoconjugates. HPLC chromatograms of DMB-derivatised sialic acids hydrolysed from glycoproteins of sialic acid analogue-treated BJA-B K20 cells. (A) standards, (B) untreated cells, (C) cells cultivated in 5-N-fluoroacNeu, (D) cells cultivated in 9-iodo-NeuAc. Peaks were identified as follows: NeuGc (internal standard), NeuAc, 5-N-fluoroac-Neu, 9-iodo-NeuAc, Na-pyruvate (internal standard). Internal standards were added to each sample.
To confirm that synthetic sialic acid analogues supplementing the medium were taken up and metabolically incorporated as analogues into surface sialoglyco-conjugates the membrane-associated sialic acid fraction was analyzed by High Performance Liquid Chromatography (HPLC). […]
To confirm that the modifications are still present after incorporation into glycoconjugates sialic acids were cleaved off cell surfaces and analyzed by HPLC. […] Sialic acids derivation was performed according to a method as given below and samples were analyzed on a reversed-phase C18 column as described (Keppler, O. T., Stehling, P., Herrmann, M., Kayser, H., Grunow, D., Reutter, W., and Pawlita, M. (1995) J Biol Chem 270(3), 1308-14).

| SMILES | effect on VVA binding [2] | effect on LFA binding [2] | effect on TLM binding [2] | also measured |
| --- | --- | --- | --- | --- |
| COC(=O)C1(OC(C)=O)C[C@H](OC(C)=O)[C@@H](NC(C)=O)[C@H]([C@H](OC(C)=O)[C@@H](COC(C)=O)OC(C)=O)O1 (stereo partly shown) [NeuAcperOAc-Me-ester] | – | – | – | reduction in concentration relative to NeuAc ([1]; 0.3 mM vs 5 mM NeuAc): more than 16 fold; effect on cell surface sialylation (VVA and TML binding) ([1]; HL60-I cells, 72 h): strongly increased cell surface sialylation; medium concentration showing similar effects as 5 mM NeuAc ([1]; HL60-I cells, 72 h): 0.3 mM |
| CC(=O)NC1C(OC(C)=O)CC(OC(C)=O)(C(=O)O)OC1C(OC(C)=O)C(COC(C)=O)OC(C)=O (stereo not shown) [NeuAcperOAc] | – | – | – | effect on cell surface sialylation (VVA and TML binding) ([1]; HL60-I cells, 72 h): no effect on cell surface sialylation |
| CC(=O)N[C@H]1[C@H]([C@H](O)[C@H](O)CN)OC(O)(C(=O)O)C[C@@H]1O (stereo partly shown) [analogue b, 5-N-acetyl-9-amino-9-deoxy-neuraminic acid] | – | – | – | changes in cell surface sialylation (lectin binding overall) [2]: failed to induce changes in cell surface sialylation |
| CC(=O)NC[C@@H](O)[C@@H](O)[C@@H]1OC(O)(C(=O)O)C[C@H](O)[C@H]1NC(C)=O (stereo partly shown) [analogue c, 5-N-acetyl-9-acetamido-9-deoxy-neuraminic acid] | – | – | – | changes in cell surface sialylation (lectin binding overall) [2]: failed to induce changes in cell surface sialylation |
| CC(=O)N[C@H]1[C@H]([C@H](O)[C@H](O)CNC(=O)CN)OC(O)(C(=O)O)C[C@@H]1O (stereo partly shown) [analogue d, 9-N-aminoacetamido-9-deoxy-neuraminic acid] | weak or no effect on VVA binding | – | – | – |
| CC(=O)N[C@H]1[C@H]([C@H](O)[C@H](O)CNC(=O)CCC(=O)O)OC(O)(C(=O)O)C[C@@H]1O (stereo partly shown) [analogue e, 5-N-acetyl-9-deoxy-9-succinylamido-neuraminic acid] | weak or no effect on VVA binding | – | – | – |
| CC(=O)N[C@H]1[C@H]([C@H](O)[C@H](O)CS)OC(O)(C(=O)O)C[C@@H]1O (stereo partly shown) [analogue g, 5-N-acetyl-9-deoxy-9-thio-neuraminic acid] | significantly decreased VVA-binding | increased binding of LFA | increased binding | – |
| CSC[C@@H](O)[C@@H](O)[C@@H]1OC(O)(C(=O)O)C[C@H](O)[C@H]1NC(C)=O (stereo partly shown) [analogue h, 5-N-acetyl-9-deoxy-9-methylthio-neuraminic acid] | significantly decreased VVA-binding | increased binding of LFA | increased binding | – |
| CC(=O)N[C@H]1[C@H]([C@H](O)[C@H](O)CS(C)(=O)=O)OC(O)(C(=O)O)C[C@@H]1O (stereo partly shown) [analogue i, 5-N-acetyl-9-deoxy-9-methylsulfonyl-neuraminic acid] | significantly decreased VVA-binding | increased binding of LFA | increased binding | – |
| O=C(CF)N[C@H]1[C@H]([C@H](O)[C@H](O)CO)OC(O)(C(=O)O)C[C@@H]1O (stereo partly shown) [analogue j, 5-N-fluoroacetyl-neuraminic acid] | significantly decreased VVA-binding | increased binding of LFA | increased binding | share of membrane-associated sialic acids consisting of the analogue [3]: 90.5% |
| O=C(N[C@H]1[C@H]([C@H](O)[C@H](O)CO)OC(O)(C(=O)O)C[C@@H]1O)C(F)(F)F (stereo partly shown) [analogue k, 5-N-trifluoroacetyl-neuraminic acid] | significantly decreased VVA-binding | – | – | – |
| NCC(=O)N[C@H]1[C@H]([C@H](O)[C@H](O)CO)OC(O)(C(=O)O)C[C@@H]1O (stereo partly shown) [analogue l, 5-N-aminoacetyl-neuraminic acid] | weak or no effect on VVA binding | – | – | – |
| O=C(O)CCC(=O)N[C@H]1[C@H]([C@H](O)[C@H](O)CO)OC(O)(C(=O)O)C[C@@H]1O (stereo partly shown) [analogue m, 5-N-succinyl-neuraminic acid] | weak or no effect on VVA binding | – | – | – |
| CC(=S)N[C@H]1[C@H]([C@H](O)[C@H](O)CO)OC(O)(C(=O)O)C[C@@H]1O (stereo partly shown) [analogue n, 5-N-thioacetyl-neuraminic acid] | significantly decreased VVA-binding | – | increased binding | – |
| CCOC(=O)C1(O)C[C@H](O)[C@@H](NC(C)=O)[C@H]([C@H](O)[C@H](O)CO)O1 (stereo partly shown) [analogue p, ethyl N-acetyl neuraminate] | significantly decreased VVA-binding | increased binding of LFA | increased binding | effect on LFA binding ([2]; listed as NeuAc-Et-Ester): very similar to those of NeuAc; effect on TLM binding ([2]; listed as NeuAc-Et-Ester): very similar to those of NeuAc |
